Results on eleven compounds are retold here after US20140023611A1 (priority 2010, published 2014).

SMILES strings stand for the structures. Some results are limits rather than exact numbers.

Data set [1] is described as follows: Stability of compounds in simulated gastric fluid (SGF). The format is in vitro ADME. The conditions noted are these: simulated gastric fluid (3 mg/mL pepsin), incubation time 6 hr, relative to t=0. As to the method: (§1) Test compounds were incubated at […] in simulated gastric fluid (SGF; standard USP solution with 3 mg/mL pepsin) or simulated intestinal fluid (SIF; standard USP solution with 3 mg/mL pancreatin) for 3 hr or 6 hr. HPLC-UV or HPLC-MS were used to determine test compound levels using peak area %. Results (Table 14) were reported as the percentage of test compound remaining after incubation in a given condition relative to test compound present at t=0 in the same condition.

Data set [2] in a line: Stability of compounds in simulated intestinal fluid (SIF). The format is in vitro ADME. The following applies: simulated intestinal fluid (3 mg/mL pancreatin), incubation time 6 hr, relative to t=0. The protocol: as §1
Data set [3] deals with T1, human NaP2b (SLC34A2) (Homo sapiens, UniProt O95436).
T1 construct: host or cells: HEK293
T1 sequence (O95436 1-690): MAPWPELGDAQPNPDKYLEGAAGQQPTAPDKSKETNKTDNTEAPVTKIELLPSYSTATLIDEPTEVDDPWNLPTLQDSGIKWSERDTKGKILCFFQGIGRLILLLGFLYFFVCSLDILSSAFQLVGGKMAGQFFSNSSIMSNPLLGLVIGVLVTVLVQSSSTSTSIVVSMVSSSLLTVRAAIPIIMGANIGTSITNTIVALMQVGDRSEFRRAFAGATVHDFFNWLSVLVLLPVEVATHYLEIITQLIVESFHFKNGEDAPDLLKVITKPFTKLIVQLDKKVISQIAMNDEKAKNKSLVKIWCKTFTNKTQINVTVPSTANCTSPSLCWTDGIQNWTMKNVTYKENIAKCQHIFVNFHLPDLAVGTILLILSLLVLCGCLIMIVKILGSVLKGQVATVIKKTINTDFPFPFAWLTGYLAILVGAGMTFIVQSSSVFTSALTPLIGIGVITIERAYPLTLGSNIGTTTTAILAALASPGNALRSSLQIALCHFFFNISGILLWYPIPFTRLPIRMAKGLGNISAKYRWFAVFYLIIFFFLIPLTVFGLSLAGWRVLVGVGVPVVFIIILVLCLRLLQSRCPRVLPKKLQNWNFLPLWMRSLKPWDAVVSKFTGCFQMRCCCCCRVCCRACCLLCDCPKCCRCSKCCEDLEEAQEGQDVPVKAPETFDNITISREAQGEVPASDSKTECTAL
Nature of the data set: Inhibition of NaP2b-mediated Pi (33P) uptake in transfected HEK293 cells, human NaP2b. The format is cell-based. The conditions noted are these: read-out: pIC50 range for human NaP2b (converted). In outline:
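Uptake of 33P-phosphate (100 uM KH2PO4 carrier, sodium vs choline buffer, pH 7.4) measured after 3-30 min at room temperature, with test compound at twelve concentrations from 0.1 nM to 30 uM in duplicate. Cells were HEK293 transfected with mutated human NaP2b (Thr insertion after 37, N39D) and treated with a PiT-silencing agent. pIC50 values from scintillation counts.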

Data set [4] has as its target T2, rat NaP2b (SLC34A2) (Rattus norvegicus, UniProt Q9JJ09).
T2 construct: host or cells: HEK293
T2 sequence (Q9JJ09 1-695): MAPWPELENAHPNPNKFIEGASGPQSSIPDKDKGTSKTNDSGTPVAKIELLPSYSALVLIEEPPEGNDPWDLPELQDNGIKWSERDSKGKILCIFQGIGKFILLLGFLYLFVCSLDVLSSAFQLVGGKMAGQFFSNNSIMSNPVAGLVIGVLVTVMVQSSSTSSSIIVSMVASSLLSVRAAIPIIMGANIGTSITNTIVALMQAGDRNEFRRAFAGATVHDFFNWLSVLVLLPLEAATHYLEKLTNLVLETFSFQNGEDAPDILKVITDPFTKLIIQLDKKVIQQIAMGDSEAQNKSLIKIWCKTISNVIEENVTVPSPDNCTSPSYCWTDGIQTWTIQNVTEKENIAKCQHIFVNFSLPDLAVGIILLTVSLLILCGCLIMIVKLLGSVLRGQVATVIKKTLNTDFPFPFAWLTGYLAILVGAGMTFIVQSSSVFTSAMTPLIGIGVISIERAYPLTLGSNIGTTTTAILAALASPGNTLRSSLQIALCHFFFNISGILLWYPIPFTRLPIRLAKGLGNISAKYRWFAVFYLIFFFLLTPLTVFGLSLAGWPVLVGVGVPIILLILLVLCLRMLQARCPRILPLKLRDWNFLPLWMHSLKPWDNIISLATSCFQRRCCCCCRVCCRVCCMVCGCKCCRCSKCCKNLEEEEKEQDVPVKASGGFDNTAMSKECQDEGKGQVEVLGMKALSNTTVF
As to the kind of experiment: Inhibition of NaP2b-mediated Pi (33P) uptake in transfected HEK293 cells, rat NaP2b. The class given is cell-based. The following applies: 33P Pi uptake, 0.1 mM phosphate, value given as pIC50 range. An outline of the steps: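 The cells transiently expressed NaP2b after Lipofectamine transfection. Each compound was run in duplicate over twelve concentrations, 0.1 nM–30 uM.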

A short description of data set [5]: Determination of compound Cmax and AUC after oral gavage (plasma LC-MS/MS). The class given is in vivo, Sprague-Dawley rats. The following applies: Sprague-Dawley, rat, plasma, po, Structure (I) examples, Table 15, actual oral dose 3-15 mg/kg, plasma 0.5-4 h. An outline of the steps:
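Plasma exposure measured by LC-MS/MS after acetonitrile precipitation with internal standard, quantified against a standard curve made in plasma. Compound given orally by gavage to Sprague-Dawley rats at nominal 2.5 or 10 mg/kg, with K2EDTA plasma sampled at 0.5, 1, 2 and 4 h.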

In the case of `CCCN(CCC)c1ccc(NC(=O)c2cccc(C(=O)N(C)CCOCCOCCOCCC(=O)O)c2)c(-c2cc(C(=O)NCc3cccc(C(F)(F)F)c3)ccn2)c1` [Example 117], in data set [1], the “% remaining, SGF” value is on record as above 80%. Further, the “% remaining, SIF” value in data set [2] is above 80%. In addition, the IC50 in data set [3] and in data set [4] was 1000 to 7940 nM throughout.

Take `COCCOCCOCCOCCOCCOCCOCCOCCOCc1cccc(C(=O)Nc2ccc(OC3CCC3)cc2-c2cc(C(=O)N[C@H]3CCCc4ccccc43)ccn2)c1` [Example 205, (S)-2-(2-(3-(2,5,8,11,14,17,20,23,26-nonaoxaheptacosyl)benzamido)-5-cyclobutoxyphenyl)-N-(1,2,3,4-tetrahydronaphthalen-1-yl)isonicotinamide]: the “% remaining, SGF” value in data set [1] is listed as above 80%. Besides, the “% remaining, SIF” value in data set [2] is above 80%. Moreover, the IC50 in data set [3] and in data set [4] was below 1000 nM in each case.

For the compound `COCCOCCOCCOCCOCCOCCOCCOCCOCc1cccc(C(=O)Nc2ccc(OC3CCC3)cc2-c2cc(C(=O)NCc3cccc(C(F)(F)F)c3)ccn2)c1` [Example 202, 2-(2-(3-(2,5,8,11,14,17,20,23,26-nonaoxaheptacosyl)benzamido)-5-cyclobutoxyphenyl)-N-(3-(trifluoromethyl)benzyl)isonicotinamide], the “% remaining, SGF” value in data set [1] is on record as above 80%. The “% remaining, SIF” value in data set [2] is given as above 80%. The IC50 in data set [3] is below 1000 nM; in data set [4] it was 1000 to 7940 nM.

For the compound `O=C(NCc1cccc(C(F)(F)F)c1)c1ccnc(-c2cc(N3CCCCC3)ccc2NC(=O)c2cccc(CSCCOCCOCCOCCOCCC(=O)N3CCN(CCOCCO)CC3)c2)c1` [Example 147], the “% remaining, SGF” value in data set [1] is listed as above 80%. Also, the “% remaining, SIF” value in data set [2] was above 80%. For the same compound, in data set [5], the AUC is below 10 ng·h/mL and the Cmax is below 10 ng/mL. In data set [4], this compound showed an IC50 of 1000 to 7940 nM.

In the case of `CCN(CC)c1ccc(NC(=O)c2cccc(CSCCOCCOCCOCCOCCC(=O)NCCOCCOCCOCCOCCOCCOCCOCCOC)c2)c(-c2cc(C(=O)N[C@H]3CCCc4ccccc43)ccn2)c1` [Example 157.1, (S)-2-(5-(diethylamino)-2-(3-(27-oxo-2,5,8,11,14,17,20,23,30,33,36,39-dodecaoxa-42-thia-26-azatritetracontan-43-yl)benzamido)phenyl)-N-(1,2,3,4-tetrahydronaphthalen-1-yl)isonicotinamide], the “% remaining, SGF” value in data set [1] is recorded as above 80%. Besides, the “% remaining, SIF” value in data set [2] is on record as above 80%. In data set [5], this compound returned an AUC below 30 ng·h/mL and a Cmax below 10 ng/mL. In data set [4], this compound gave an IC50 of 1000 to 7940 nM.

On to `O=C(CCOCCOCCOCCOCCSCc1cccc(C(=O)Nc2ccc(N3CCCCC3)cc2-c2cc(C(=O)NCc3cccc(C(F)(F)F)c3)ccn2)c1)NCCOCCOCCOCCOCCOCCOCCOCCO` [Example 149, 2-(2-(3-(41-hydroxy-17-oxo-5,8,11,14,21,24,27,30,33,36,39-undecaoxa-2-thia-18-azahentetracontyl)benzamido)-5-(piperidin-1-yl)phenyl)-N-(3-(trifluoromethyl)benzyl)isonicotinamide], for which the “% remaining, SGF” value in data set [1] is on record as above 80%. Moreover, the “% remaining, SIF” value in data set [2] is above 80%. Moreover, in data set [5], the area under the curve (AUC) is below 10 ng·h/mL and the Cmax is below 10 ng/mL. This compound also had an IC50 in data set [4] of 1000 to 7940 nM.

In the case of `COCCOCCOCCOCCOCCOCCOCCN(C)C(=O)[C@H]1CCCN(C(=O)c2cccc(C(=O)Nc3ccc(N4CCCCC4)cc3-c3cc(C(=O)N[C@H]4CCCc5ccccc54)ccn3)c2)C1` [Example 255, 2-(2-(3-((S)-3-(2,5,8,11,14,17,20-heptaoxadocosan-22-yl(methyl)carbamoyl)piperidine-1-carbonyl)benzamido)-5-(piperidin-1-yl)phenyl)-N—((S)-1,2,3,4-tetrahydronaphthalen-1-yl)isonicotinamide], in data set [1], the “% remaining, SGF” value is listed as above 80%. In addition, the “% remaining, SIF” value in data set [2] is reported as above 80%. In data set [5], this compound returned an AUC below 10 ng·h/mL and a Cmax below 10 ng/mL. For the same compound, the IC50 in data set [4] was 1000 to 7940 nM.

Take `COCCN(C)C(=O)N1CCN(CCN(C)Cc2cccc(C(=O)Nc3ccc(N4CCCCC4)cc3-c3cc(C(=O)NCc4cccc(C(F)(F)F)c4)ccn3)c2)CC1` [Example 209, N-(2-methoxyethyl)-N-methyl-4-(2-(methyl(3-(4-(piperidin-1-yl)-2-(4-(3-(trifluoromethyl)benzylcarbamoyl)pyridin-2-yl)phenylcarbamoyl)benzyl)amino)ethyl)piperazine-1-carboxamide]: the “% remaining, SGF” value in data set [1] is on record as above 80%. For the same compound, the “% remaining, SIF” value in data set [2] is recorded as 60-80%. Besides, in data set [5], the AUC is below 30 ng·h/mL and the highest concentration (Cmax) is below 30 ng/mL. The compound further showed an IC50 in data set [4] of 1000 to 7940 nM.

Consider `CCN(CC)c1ccc(NC(=O)c2cccc(CSCCOCCOCCOCCOCCC(=O)O)c2)c(-c2cc(C(=O)N[C@H]3CCCc4ccccc43)ccn2)c1` [Example 157, (S)-1-(3-(4-(diethylamino)-2-(4-(1,2,3,4-tetrahydronaphthalen-1-ylcarbamoyl)pyridin-2-yl)phenylcarbamoyl)phenyl)-5,8,11,14-tetraoxa-2-thiaheptadecan-17-oic acid], for which the “% remaining, SGF” value in data set [1] was above 80%. In addition, in data set [2], the “% remaining, SIF” value was above 80%. In data set [5], the AUC was below 10 ng·h/mL and the Cmax is below 10 ng/mL. In data set [4], this compound showed an IC50 below 1000 nM.

As to `O=C(CCOCCOCCOCCOCCSCc1cccc(C(=O)Nc2ccc(N3CCCCC3)cc2-c2cc(C(=O)NCc3cccc(C(F)(F)F)c3)ccn2)c1)NCCN1CCOCC1` [Example 146, 2-(2-(3-(20-morpholino-17-oxo-5,8,11,14-tetraoxa-2-thia-18-azaicosyl)benzamido)-5-(piperidin-1-yl)phenyl)-N-(3-(trifluoromethyl)benzyl)isonicotinamide], the “% remaining, SGF” value in data set [1] was above 80%. Also, in data set [2], the “% remaining, SIF” value is given as 60-80%. In data set [5], this compound displayed an AUC below 10 ng·h/mL and a Cmax below 10 ng/mL. Further, in data set [4], the IC50 was 1000 to 7940 nM.

On to `COCCOCCOCCOCCOCCOCCOCCNC(=O)[C@H]1CCCN(C(=O)c2cccc(C(=O)Nc3ccc(N4CCCCC4)cc3-c3cc(C(=O)N[C@H]4CCCc5ccccc54)ccn3)c2)C1` [Example 256, 2-(2-(3-((S)-3-(2,5,8,11,14,17,20-heptaoxadocosan-22-ylcarbamoyl)piperidine-1-carbonyl)benzamido)-5-(piperidin-1-yl)phenyl)-N—((S)-1,2,3,4-tetrahydronaphthalen-1-yl)isonicotinamide], for which the “% remaining, SGF” value in data set [1] is above 80%. The “% remaining, SIF” value in data set [2] is given as above 80%. In data set [5], this compound registered an AUC below 10 ng·h/mL and a Cmax below 10 ng/mL. This compound showed an IC50 in data set [4] of 1000 to 7940 nM.
